The subject of this assay is RAW264.7. Kind of assay: Antiinflammatory activity in mouse RAW264.7 cells assessed as inhibition of LPS-induced nitric oxide production after 18 hrs by Griess reagent method. Conditions: RAW264.7, 18 h. Type of assay: functional, cell-based. (In general: Nitrite, measured by Griess reagent, commonly stands in for NO production.)

The term IC50 denotes the midpoint of a concentration-inhibition curve. Turning to `COc1cc([C@@H]2OC[C@@H]3[C@H]2CO[C@@H]3c2ccc(OC34OCOC3=CC(=O)[C@@H]([C@@H]3OC[C@H]5[C@@H]3CO[C@H]5c3ccc(OC)c(OC)c3)[C@@H]4O)c(OC)c2)ccc1O` (some centres not stated) [ZANTHPODOCARPIN B], the IC50 worked out at 12.2 µM.
`COc1ccc([C@@H]2OC[C@@H]3[C@H]2CO[C@H]3[C@@H]2C(=O)C=C3OCOC3(Oc3ccc([C@H]4OC[C@@H]5[C@H]4CO[C@H]5c4ccc5c(c4)OCO5)cc3OC)[C@H]2O)cc1OC` (some centres not stated) [ZANTHPODOCARPINS A]: the IC50 turned out to be 5.31 µM.

For the origin of these results see ChEMBL document CHEMBL1641408, “Two dimeric lignans with an unusual α,β-unsaturated ketone motif from Zanthoxylum podocarpum and their inhibitory effects on nitric oxide production” (Bioorg Med Chem Lett, 2011).
